Measured values from ChEMBL document CHEMBL1128387, “Sigma ligands with subnanomolar affinity and preference for the sigma 2 binding site. 2. Spiro-joined benzofuran, isobenzofuran, and benzopyran piperidines” (J Med Chem, 1995).

Legend:
[1] = molecular target: Sigma non-opioid intracellular receptor 1 (Rattus norvegicus, UniProt Q9R0C9); test: Compound was evaluated for the binding affinity towards Sigma receptor type 1 using radioligand ([3H]-(+)- Pentazocine) binding assay.
[2] = molecular target: Sigma intracellular receptor 2 (Rattus norvegicus, UniProt Q5U3Y7); test: Binding affinity towards Sigma receptor type 2 in whole rat brain homogenates except cerebellum using radioligand ([3H]DTG) binding assay.; assay type: tissue-based
Sigma intracellular receptor 2, sequence (Q5U3Y7 whole entry, looked up): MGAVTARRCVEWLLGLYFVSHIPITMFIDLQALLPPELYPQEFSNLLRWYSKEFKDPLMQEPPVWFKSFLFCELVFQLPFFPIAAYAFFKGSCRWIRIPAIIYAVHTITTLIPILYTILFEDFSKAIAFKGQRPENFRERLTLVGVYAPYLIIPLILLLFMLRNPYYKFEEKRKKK

Sigma non-opioid intracellular receptor 1, sequence (Q9R0C9 whole entry): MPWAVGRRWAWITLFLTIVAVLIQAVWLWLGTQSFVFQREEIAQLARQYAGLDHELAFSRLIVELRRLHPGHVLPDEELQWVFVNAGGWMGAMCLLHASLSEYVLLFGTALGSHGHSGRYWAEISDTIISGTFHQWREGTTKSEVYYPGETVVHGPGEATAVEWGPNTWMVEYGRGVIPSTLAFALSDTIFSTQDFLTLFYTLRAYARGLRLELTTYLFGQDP

| Compound | IC50 [1] | IC50 [2] |
| --- | --- | --- |
| Fc1ccc(-n2cc(CCCCN3CCC4(CC3)SCc3ccccc34)c3ccccc32)cc1 | 0.035 µM |  |
| Fc1ccc(-n2cc(CCCCN3CCC4(CC3)OCc3cccc(F)c34)c3ccccc32)cc1 | 0.15 µM |  |
| CCN1CCC2(CC1)OCc1ccccc12 | 0.14 µM | 0.27 µM |
| Fc1ccc(-n2cc(CCCCN3CCC4(CC3)Cc3ccccc3O4)c3ccccc32)cc1 | 0.36 µM |  |
| c1ccc(CN2CCC3(CCCc4ccccc43)CC2)cc1 |  | 0.012 µM |
| c1ccc(CCCCN2CCC3(CC2)OCc2ccccc23)cc1 | 0.00027 µM |  |
| Fc1ccc(-n2cc(CCCCN3CCC4(CC3)COc3ccccc34)c3ccccc32)cc1 | 0.0038 µM |  |
| Fc1ccc(-n2cc(CCCCN3CCC4(CC3)COc3ccccc3C4)c3ccccc32)cc1 | 0.2 µM |  |
| Fc1ccc(-n2cc(CCCCN3CCC4(CCOc5ccccc54)CC3)c3ccccc32)cc1 | 0.007 µM |  |
| c1ccc2c(c1)COC21CCN(CCCOC2CCCCC2)CC1 | 0.0004 µM |  |
| Fc1ccc(-n2cc(CCCCN3CCC4(CC3)OCc3c(F)cccc34)c3ccccc32)cc1 | 0.29 µM |  |
| c1ccc(CCCN2CCC3(CC2)OCc2ccccc23)cc1 | 0.00056 µM |  |
| Fc1ccc(-n2cc(CCCCN3CCC4(CC3)OCc3c(C(F)(F)F)cccc34)c3ccccc32)cc1 | 0.18 µM |  |
| Fc1ccc(-n2cc(CCCCN3CCC4(CC3)Oc3ccccc3O4)c3ccccc32)cc1 | 0.43 µM |  |
| CC(C)N1CCC2(CC1)OCc1ccccc12 | 0.031 µM | 0.049 µM |
| c1ccc2c(c1)COC21CCN(CCCCC2CCCCC2)CC1 | 0.0015 µM |  |
| Fc1ccc(-n2cc(CCCCN3CCC4(CC3)Cc3ccccc3CO4)c3ccccc32)cc1 | 0.023 µM |  |
| Fc1ccc(-n2cc(CCCCN3CCC4(CC3)COCc3ccccc34)c3ccccc32)cc1 | 0.0034 µM |  |
| CCCN1CCC2(CC1)OCc1ccccc12 | 0.0047 µM | 0.023 µM |
| Cc1ccc2c(c1)COC21CCN(CCCCc2cn(-c3ccc(F)cc3)c3ccccc23)CC1 | 0.0095 µM | 0.0023 µM |
| c1ccc(CCCCCN2CCC3(CC2)OCc2ccccc23)cc1 | 0.00082 µM |  |
| c1ccc2c(c1)COC21CCNCC1 | 0.63 µM | 11 µM |
| c1ccc(CCN2CCC3(CC2)OCc2ccccc23)cc1 | 0.0022 µM |  |
| Fc1ccc(-n2cc(CCCCN3CCC4(CC3)OCCc3ccccc34)c3ccccc32)cc1 | 0.053 µM |  |
